Assay results: patent US11077113B2, “6-aryl-4-morpholin-1-ylpyridone compounds useful for the treatment of cancer and diabetes” (priority 2016, dated 2021)

How the values were obtained:
[1] = target: Vps34 enzyme (Homo sapiens (Human), UniProt Q8NEB9); assay: Vps34 Biochemical Assay (Adapta TR-FRET); settings: 20 μM ATP and 200 μM PI:PS in substrate mix, 1 h at room temperature, read-out: Median IC50 μM Adapta
Protocol: Dilution series of compounds of the invention were prepared in DMSO at 100 times the final assay concentration (n1=n0/3 in 10 points). The compounds were further diluted to 4 times the assay concentration in assay buffer (Life technologies buffer Q, PV5125, diluted 5 times supplemented with 2 mM DTT and 2 mM MnCl2). 2.5 μl of the diluted compounds were added to a 384 well assay plate followed by 2.5 μl of 16.5 nM Vps34 enzyme (Life technologies, PV5126). Enzyme and compounds were preincubated at rt for 15 min. Then 5 μl of substrate mix containing 20 μM ATP (Life technologies, PV3227) and 200 μM PI:PS substrate (Life technologies, PV5122) in assay buffer was added to the wells containing compound and enzyme and mixing was performed by pipetting several times. The reaction was incubated at room temperature for 1 h. Then 5 μl stop-detection mix, prepared as described in the adapta kinase assay kit instructions (Life technologies, PV5099) containing Adapta Eu-anti-ADP antibody (2.3 nM), Alexa Fluor 647 ADP tracer (9 nM) and EDTA (30 mM) in TR-FRET buffer, was added to quench the reaction. Mixing was performed by pipetting several times. The assay plate was then incubated at room temperature for 30 min and read with Artemis micro plate reader. Percent inhibition of the compounds as compared to DMSO treated control samples was calculated. By the use of Dotmatics software compound concentration versus percent inhibition was fitted to generate IC50 values.

[2] = tested on: autophagy in HOS cells; assay: High Content Screening Autophagy Assay (GFP-LC3 foci); assay type: cell-based; settings: Homo sapiens; HOS cells expressing GFP-LC3; autophagy activated with KU-0063794 500 nM plus Bafilomycin A1 5 nM; 6 hours; foci area per cell; read-out: Median IC50 μM Cellular assay
Protocol: High Content Screening Autophagy Assay
Human osteosarcoma cells (HOS) stably expressing a Green Fluorescent Protein (GFP) tagged LC3 (GFP-LC3) were used to determine the inhibitory effect on autophagy of proprietary compounds. For that purpose, autophagy was activated by using the mTOR inhibitor KU-0063794 at 500 nM in the presence of Bafilomycin A1 (Sigma-Aldrich) at 5 nM. Shortly, cells were plated overnight in clear bottom 96-well plates in DMEM-High Modified media (Hi-Clone Cat #SH30285.01). At the start of the experiment, the media was removed and replaced with fresh media containing the mTOR inhibitor, Bafilomycin A1 and the vehicle or a test compound as indicated. After 6 hours the media was removed, cells were washed twice with ice-cold phosphate buffered saline (PBS) and fixed with 4% paraformaldehyde for 20 minutes at room temperature. Then the cells were washed twice with ice-cold PBS before adding Hoechst 33342 at 1 μg/ml in PBS for nuclear staining. After incubation overnight at 4° C., cells were washed once with PBS to remove the excess of dye and 100 μl of PBS was added to each well. Images were acquired at 20× magnification, 6 images per well, using the ImageXpress automated microscope (Molecular Devices Inc.) and analyzed with MetaXpress software to identify LC3-GFP foci. Foci area per cell values were used to generate dose response curves and IC50 calculated using non-linear fitting analysis in GraphPad Prism software.
The results of the assay are shown in Table 2 (Median IC50 μM Cellular assay).

Vps34 enzyme, sequence (Q8NEB9 whole entry): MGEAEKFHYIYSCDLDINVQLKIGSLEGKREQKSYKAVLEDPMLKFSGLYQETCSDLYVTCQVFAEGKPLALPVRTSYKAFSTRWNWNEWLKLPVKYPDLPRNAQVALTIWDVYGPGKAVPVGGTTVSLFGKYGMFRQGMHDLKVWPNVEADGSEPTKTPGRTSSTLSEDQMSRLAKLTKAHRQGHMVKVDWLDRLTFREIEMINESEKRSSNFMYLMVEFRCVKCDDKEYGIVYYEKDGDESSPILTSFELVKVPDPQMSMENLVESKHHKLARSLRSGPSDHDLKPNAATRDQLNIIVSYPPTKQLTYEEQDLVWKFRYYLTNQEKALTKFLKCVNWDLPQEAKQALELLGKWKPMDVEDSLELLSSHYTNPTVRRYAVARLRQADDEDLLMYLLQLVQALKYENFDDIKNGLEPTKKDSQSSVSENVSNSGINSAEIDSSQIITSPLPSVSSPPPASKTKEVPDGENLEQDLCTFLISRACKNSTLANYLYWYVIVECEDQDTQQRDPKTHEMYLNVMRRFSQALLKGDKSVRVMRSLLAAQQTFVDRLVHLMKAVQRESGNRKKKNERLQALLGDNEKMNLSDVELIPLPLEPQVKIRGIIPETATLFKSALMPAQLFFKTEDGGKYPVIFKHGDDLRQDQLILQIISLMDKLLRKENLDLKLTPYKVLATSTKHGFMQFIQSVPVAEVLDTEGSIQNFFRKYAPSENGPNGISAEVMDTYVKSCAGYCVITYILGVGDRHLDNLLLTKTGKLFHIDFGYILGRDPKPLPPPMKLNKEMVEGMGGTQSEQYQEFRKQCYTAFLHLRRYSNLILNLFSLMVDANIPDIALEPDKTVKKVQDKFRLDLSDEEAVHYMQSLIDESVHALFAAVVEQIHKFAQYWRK

| Structure (SMILES) | IC50 [1] | IC50 [2] |
| --- | --- | --- |
| C[C@@H]1COCCN1c1cc(-c2cccnc2C(F)(F)F)[nH]c(=O)c1 [Example 10, 4-[(3R)-3-methylmorpholin-4-yl]-6-[2-(trifluoromethyl)-3-pyridyl]-1H-pyridin-2-one] | 0.02 µM | 0.09 µM |
| C[C@@H]1COCCN1c1cc(-c2ccoc2)[nH]c(=O)c1 [Example 13, 6-(3-furyl)-4-[(3R)-3-methylmorpholin-4-yl]-1H-pyridin-2-one] | 0.2 µM | – |
| Cn1c(-c2ccccc2Cl)cc(N2CCOCC2)cc1=O [Example 2, 6-(2-chlorophenyl)-1-methyl-4-morpholino-pyridin-2-one] | 0.05 µM | 3 µM |
| O=c1cc(N2CCOCC2)cc(-c2ccccc2Cl)[nH]1 [Example 1, 6-(2-chlorophenyl)-4-morpholino-1H-pyridin-2-one] | 0.03 µM | 2 µM |
| Cc1ccccc1-c1cc(N2CCOC[C@H]2C)cc(=O)[nH]1 [Example 9, 4-[(3R)-3-methylmorpholin-4-yl]-6-(o-tolyl)-1H-pyridin-2-one] | 0.03 µM | – |
| Cc1ccncc1-c1cc(N2CCOCC2C)cc(=O)[nH]1 (stereo not drawn) [Example 5, 4-(3-methylmorpholin-4-yl)-6-(4-methyl-3-pyridyl)-1H-pyridin-2-one] | 0.1 µM | 14 µM |
| C[C@@H]1COCCN1c1cc(-c2cc(F)ccc2Cl)[nH]c(=O)c1 [Example 8, 6-(2-chloro-5-fluoro-phenyl)-4-[(3R)-3-methylmorpholin-4-yl]-1H-pyridin-2-one] | 0.01 µM | 1 µM |
| C[C@@H]1COCCN1c1cc(-c2ccccc2NS(C)(=O)=O)[nH]c(=O)c1 [Example 15, N-[2-[4-[(3R)-3-methylmorpholin-4-yl]-6-oxo-1H-pyridin-2-yl]phenyl]methanesulfonamide] | 0.2 µM | – |
| C[C@@H]1COCCN1c1cc(-c2ccccc2Cl)[nH]c(=O)c1 [Example 11, 6-(2-chlorophenyl)-4-[(3R)-3-methylmorpholin-4-yl]-1H-pyridin-2-one] | 0.007 µM | 0.6 µM |
| Cc1cscc1-c1cc(N2CCOC[C@H]2C)cc(=O)[nH]1 [Example 14, 4-[(3R)-3-methylmorpholin-4-yl]-6-(4-methyl-3-thienyl)-1H-pyridin-2-one] | 0.03 µM | – |
| CC1COCCN1c1cc(-c2cncnc2)[nH]c(=O)c1 (stereo not drawn) [Example 6, 4-(3-methylmorpholin-4-yl)-6-pyrimidin-5-yl-1H-pyridin-2-one] | 1 µM | 14 µM |
| CC1COCCN1c1cc(-c2ccccc2-c2ccccc2)[nH]c(=O)c1 (stereo not drawn) [Example 7, 4-(3-methylmorpholin-4-yl)-6-(2-phenylphenyl)-1H-pyridin-2-one] | 0.06 µM | – |
| CC1COCCN1c1cc(-c2ccccc2Cl)[nH]c(=O)c1 (stereo not drawn) [Example 3, 6-(2-chlorophenyl)-4-(3-methylmorpholin-4-yl)-1H-pyridin-2-one] | 0.01 µM | 0.7 µM |
| Cc1ccc2ncccc2c1-c1cc(N2CCOC[C@H]2C)cc(=O)[nH]1 [Example 16, 4-[(3R)-3-methylmorpholin-4-yl]-6-(6-methyl-5-quinolyl)-1H-pyridin-2-one] | 0.2 µM | – |
| C[C@@H]1COCCN1c1cc(-c2ccccc2C(F)(F)F)[nH]c(=O)c1 [Example 12, 4-[(3R)-3-methylmorpholin-4-yl]-6-[2-(trifluoromethyl)phenyl]-1H-pyridin-2-one] | 0.007 µM | 0.6 µM |
| C[C@@H]1COCCN1c1cc(-c2ccc(-c3ccn[nH]3)cc2)[nH]c(=O)c1 [Example 17, 4-[(3R)-3-methylmorpholin-4-yl]-6-[4-(1H-pyrazol-5-yl)phenyl]-1H-pyridin-2-one] | 0.2 µM | – |
| CC1COCCN1c1cc(-c2ccccc2Cl)n(C)c(=O)c1 (stereo not drawn) [Example 4, 6-(2-chlorophenyl)-1-methyl-4-(3-methylmorpholin-4-yl)pyridin-2-one] | 0.02 µM | 1 µM |
